According to US7524517B2, “Methods and compositions for P2X receptor calcium entry channels and other calcium entry mechanisms” (UAB Research Foundation, priority 2003, dated 2009):
Entries after “also recorded” stand apart in the source; their conditions may differ.

Columns and labels:
[1] = test system: P2X receptor Ca^2+ entry channels; assay: Fura-2/AM fluorescence imaging of cytosolic Ca2+ in IB3-1 CF airway epithelial cells; assay type: cell-based, human
ENaC [2] = biological target: T1, ENaC (Mus musculus, UniProt Q61180+Q9WU38+Q9WU39); assay: Ussing chamber / voltohmmeter recordings of ENaC-mediated Na+ absorption in airway and PKD collecting duct monolayers; assay type: cell-based; settings: for concentrations required for inhibition in ISC recordings / doses inhibitory in PD assays: ARPKD sodium hyperabsorption; for doses inhibitory in PD assays: VTE/PD
T1 construct: from tissue; host or cells: nasal mucosa of living control, Cincinnati bitransgenic CF and delF508 CF mice
T1 sequence (Q61180 1-699): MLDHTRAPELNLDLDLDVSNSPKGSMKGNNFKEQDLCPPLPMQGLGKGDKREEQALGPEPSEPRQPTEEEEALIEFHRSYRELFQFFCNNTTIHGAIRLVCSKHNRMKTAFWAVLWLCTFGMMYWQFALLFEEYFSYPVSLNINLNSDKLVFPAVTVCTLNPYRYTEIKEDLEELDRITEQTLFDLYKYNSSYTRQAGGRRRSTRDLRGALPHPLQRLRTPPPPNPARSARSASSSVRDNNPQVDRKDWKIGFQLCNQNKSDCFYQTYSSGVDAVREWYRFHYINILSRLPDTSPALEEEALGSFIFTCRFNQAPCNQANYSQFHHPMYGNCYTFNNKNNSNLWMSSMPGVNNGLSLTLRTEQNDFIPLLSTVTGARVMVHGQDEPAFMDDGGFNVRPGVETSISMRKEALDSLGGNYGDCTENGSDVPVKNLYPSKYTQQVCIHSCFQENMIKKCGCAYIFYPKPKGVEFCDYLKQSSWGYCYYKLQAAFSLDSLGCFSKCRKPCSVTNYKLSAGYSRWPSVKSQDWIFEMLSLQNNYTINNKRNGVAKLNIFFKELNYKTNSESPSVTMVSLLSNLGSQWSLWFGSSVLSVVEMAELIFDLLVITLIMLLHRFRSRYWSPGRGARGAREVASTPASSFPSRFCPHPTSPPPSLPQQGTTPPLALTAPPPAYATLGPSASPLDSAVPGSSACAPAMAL
T1 sequence (Q9WU38 1-638): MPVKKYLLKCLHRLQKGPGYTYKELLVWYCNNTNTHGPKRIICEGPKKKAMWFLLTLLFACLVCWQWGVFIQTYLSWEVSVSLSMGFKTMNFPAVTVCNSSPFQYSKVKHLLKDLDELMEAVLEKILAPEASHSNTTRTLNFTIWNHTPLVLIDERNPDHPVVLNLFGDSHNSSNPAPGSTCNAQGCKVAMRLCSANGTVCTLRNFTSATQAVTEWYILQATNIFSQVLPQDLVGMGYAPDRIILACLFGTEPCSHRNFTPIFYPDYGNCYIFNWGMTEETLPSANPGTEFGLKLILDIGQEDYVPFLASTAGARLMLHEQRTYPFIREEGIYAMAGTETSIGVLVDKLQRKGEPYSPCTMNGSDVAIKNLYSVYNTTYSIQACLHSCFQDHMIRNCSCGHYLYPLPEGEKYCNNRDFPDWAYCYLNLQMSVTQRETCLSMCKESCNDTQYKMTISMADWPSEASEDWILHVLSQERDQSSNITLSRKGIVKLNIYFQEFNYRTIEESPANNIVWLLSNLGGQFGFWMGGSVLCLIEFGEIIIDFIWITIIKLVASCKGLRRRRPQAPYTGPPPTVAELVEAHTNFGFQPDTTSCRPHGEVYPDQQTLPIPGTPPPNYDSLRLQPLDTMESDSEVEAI
T1 sequence (Q9WU39 1-655): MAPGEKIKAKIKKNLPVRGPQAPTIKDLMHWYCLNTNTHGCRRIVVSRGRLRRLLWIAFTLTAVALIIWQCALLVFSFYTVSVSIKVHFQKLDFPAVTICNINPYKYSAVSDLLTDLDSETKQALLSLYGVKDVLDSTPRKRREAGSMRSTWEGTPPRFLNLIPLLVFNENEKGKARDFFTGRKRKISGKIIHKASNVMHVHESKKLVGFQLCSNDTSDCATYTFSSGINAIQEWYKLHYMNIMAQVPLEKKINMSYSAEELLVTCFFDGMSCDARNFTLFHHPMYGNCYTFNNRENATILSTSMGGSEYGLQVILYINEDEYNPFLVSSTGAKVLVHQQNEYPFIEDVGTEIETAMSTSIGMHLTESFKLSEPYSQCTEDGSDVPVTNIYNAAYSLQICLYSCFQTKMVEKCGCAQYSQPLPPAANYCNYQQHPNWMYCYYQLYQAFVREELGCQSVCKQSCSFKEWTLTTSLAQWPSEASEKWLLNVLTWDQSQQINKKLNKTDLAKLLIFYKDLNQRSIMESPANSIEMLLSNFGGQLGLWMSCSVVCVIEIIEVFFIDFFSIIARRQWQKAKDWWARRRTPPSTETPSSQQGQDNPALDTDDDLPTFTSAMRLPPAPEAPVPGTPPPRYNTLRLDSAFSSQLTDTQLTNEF

calcium entry channels = assay: Fura-2 fluorescence ratio, sustained calcium entry signals in mammalian cells (FIG. 19C); assay type: cell-based
[3] = test system: INS-1 rat pancreatic β cells; assay: Fura-2 fluorescence assay of cell calcium in INS-1 cells; assay type: cell-based; settings: Na+- and Mg2+-free Ringer, zinc alone 1-50 micromolar
Procedure: Cytosolic Ca^2+ concentration was measured with dual excitation wavelength fluorescence microscopy (Deltascan, Photon Technologies, Princeton, N.J.) after cells were loaded with the permeant form of the fluorescence dye, Fura-2-acetoxymethyl ester (Fura-2-AM; Teflabs, Austin, Tex., USA). Fura-2 fluorescence was measured at an emission wavelength of 510 nm in response to excitation wavelength of 340 nm and 380 nm, alternated at a rate of 50 Hz by a computer-controlled chopper assembly. Ratios (340 nm/380 nm) were calculated at a […] using PTI software. Cells were incubated in Dulbecco's phosphate buffered saline containing 2 mM CaCl2 and 1 mM MgCl2 in the presence of 5 μM Fura2-AM and 1 mg/ml Pluronic F-127 dissolved in DMSO for 120 min to allow loading of the dye into the cells. After loading, coverslips were rinsed at least for 10 min in Dulbecco's phosphate buffered saline to remove extracellular Fura 2-AM and the surfactant, and were positioned in the cuvette at a 45° angle from the excitation light. […] Fluorescence intensities at both wavelengths were assessed and only those preparations in which there were >200,000 counts/s for both wavelengths were used for experiments. At the beginning of each experiment, cells were perfused with solution A (see below) and the fluorescence ratio was monitored for at least 100 sec to establish a stable baseline value. […]

IB3-1 CF cells = assay: SPQ halide fluorescence assay of Cl- efflux; assay type: cell-based, human; settings: Na+- and Mg2+-free vehicle, 3 mM Ca2+, pH 7.9
Procedure: Modifications to this method involved the use of NaCl at the beginning and end of protocols. Agonists were tested in NMDGNO3-containing solution (as above for Ca^2+ assays).
In our modified saline vehicle that was devoid of Na+ and Mg^2+ and enriched in Ca^2+ (3 mM) along with modifications in the halides (Cl− substituted with iodide to quench the SPQ dye and nitrate to unquench), ATP plus zinc or zinc alone was added to IB3-1 CF cells and halide efflux was rescued in these cells. The effects were dependent upon an alkaline extracellular pH (pH 7.9) and the presence of extracellular Ca^2+. In essence, the rescue of Cl− transport (measured with a different halide in this case) was dependent upon the same chemical conditions as the zinc-induced Ca^2+ entry.

ENaC [4] = biological target: T1, ENaC; assay: In vivo nasal potential difference, ENaC-mediated Na+ absorption
[5] = test system: non-mucoid and mucoid Pseudomonas aeruginosa; assay: Bacterial growth in liquid LB medium and on LB-agar plates; assay type: cell-based
INS-1 cells = assay: ELISA of insulin secretion from INS-1 cells; assay type: cell-based, rat; settings: 15 seconds to 120 minutes after stimulation
[6] = test system: Cl− transport across the nasal mucosa; assay: In vivo nasal potential difference, rescue of Cl- secretion; parameters: species or system mouse; settings: CF mice

ivermectin
effect on zinc and/or ATP induced manganese or calcium entry ([1]; included with ATP and/or zinc, Fura-2 quenching and direct Fura-2 assays): potentiated

[Ni] [nickel, reference compound]
concentrations required for inhibition in ISC recordings (ENaC [2]): Millimolar | doses inhibitory in PD assays (ENaC [2]): mid-micromolar

C/C=C(/C)C(=O)O[C@H]1C(C)=C2[C@H]([C@@H]1OC(=O)CCCCCCC)[C@@](C)(OC(C)=O)C[C@H](OC(=O)CCC)[C@@]1(O)[C@H]2OC(=O)[C@@]1(C)O [thapsigargin]
effect on zinc-induced Ca2+ transients ([1]; thapsigargin pretreatment, Ca2+-free medium): abolished | Fura-2 fluorescence ratio, transient peak (store-operated calcium channels) (calcium entry channels; thapsigargin 100 nM, ER store depletion and re-addition of extracellular calcium): 3.0

[Zn+2] [zinc]
zinc-induced increases in Ca2+ ([1]; Ca2+-free medium): small and transient | effect on cell calcium / Ca2+ entry [3]: further sustained increase in Ca^2+ entry; also recorded: small transient increase above the sustained plateau | Fura-2 fluorescence ratio, sustained calcium entry (calcium entry channels; Na+ free conditions, pH 7.9): 2.1 | halide efflux / Cl- permeability in CF cells (IB3-1 CF cells): rescued | concentrations required for inhibition in ISC recordings (ENaC [2]): Millimolar | doses inhibitory in PD assays (ENaC [2]): mid-micromolar | concentration range inhibiting ENaC (ENaC [2]; Ussing chamber recordings): 50 to 100 µM | depolarization of NPD (ENaC [4]; Cincinnati bitransgenic CF mouse): ~10 mV | depolarization of NPD (ENaC [4]; control mouse, NaCl-replete lactated Ringer): 3-4 mV | depolarization of NPD (ENaC [4]; deIF508 CF mouse): 6-7 mV | IC50 ([5]; read-out: IC50, bacterial growth inhibition): 1000 to 5000 µM | insulin secretion versus glucose stimulus (INS-1 cells): even more potent stimulus than glucose

ferrous sulfate
growth, iron competition experiment [5]: inhibit

C[C@H](CCC(=O)O)C[C@H](C)C[C@H](C)C(=O)/C=C(\O)[C@H](C)C[C@H](C)C/C=C/[C@@H](C)[C@@H](O)[C@@H](C)[C@@H](O)C[C@@H]1CC[C@@](C)([C@H]2CC[C@@](C)([C@@H](C)O)O2)O1 [ionomycin]
Fura-2 fluorescence ratio, sustained (calcium entry channels; ionomycin 2 μM): 3.4

[Cl-].[Cl-].[Zn+2] [ZnCl2, zinc chloride]
halide efflux / Cl- permeability in CF cells (IB3-1 CF cells): restored Cl− permeability

[Cu] [copper]
effect on zinc effects (Ca2+ entry) [1]: competitively inhibit

O=S(=O)([O-])[O-].O=S(=O)([O-])[O-].O=S(=O)([O-])[O-].[Fe+3].[Fe+3] [Ferric iron, ferric sulfate]
growth, iron competition experiment [5]: enhanced growth significantly

CC(C)NCC(O)c1ccc(O)c(O)c1 (centres unmarked) [isoproterenol]
effect on nasal PD [6]: without effect
